In PMC9437035, “Decoding the olfactory map through targeted transcriptomics links murine olfactory receptors to glomeruli” (Nature Communications, 2022):

Key:
Olfr1377 [1] = target: T1, Olfr1377 (Mus musculus, UniProt B2RQ46); experiment: CRE-luciferase reporter assay in Hana3A cells; assay type: cell-based; design: expressed from plasmid in Hana3A cells with RTP1S and M3R
T1 sequence (B2RQ46 1-307): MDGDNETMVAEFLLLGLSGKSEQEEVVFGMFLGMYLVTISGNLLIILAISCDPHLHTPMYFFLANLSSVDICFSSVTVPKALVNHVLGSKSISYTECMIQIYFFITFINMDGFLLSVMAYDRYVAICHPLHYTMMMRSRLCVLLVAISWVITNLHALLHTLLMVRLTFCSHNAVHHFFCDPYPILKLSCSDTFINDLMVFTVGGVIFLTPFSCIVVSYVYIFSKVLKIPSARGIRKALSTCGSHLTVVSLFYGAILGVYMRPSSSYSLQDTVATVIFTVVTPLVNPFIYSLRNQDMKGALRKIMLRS

Olfr1377 [2] = target: T1, Olfr1377; experiment: in vivo two-photon GCaMP6s imaging of the receptor-tagged glomerulus; design: native receptor in mKate2-labelled olfactory sensory neurons (IRES-mKate2 after the CDS, receptor unaltered); details: agonist; estimated delivered odorant concentration (olfactometer), anesthetized mice
Olfr1377 [3] = target: T1, Olfr1377; experiment: as above; design: native receptor in mKate2-labelled olfactory sensory neurons (IRES-mKate2 after the CDS, receptor unaltered); details: agonist; inhaled odorant on the order of 10^0 nM, anesthetized mice
Olfr881 = target: T2, Olfr881 (Mus musculus, UniProt Q8VF63); experiment: in vivo two-photon GCaMP6s imaging of the receptor-tagged glomerulus; pS6-IP RNA-Seq; details: agonist; inhaled odorant, anesthetized mice (imaging)
T2 construct: gene Or8b35; native receptor in mKate2-labelled olfactory sensory neurons (IRES-mKate2 after the CDS, receptor unaltered)
T2 sequence (Q8VF63 1-314): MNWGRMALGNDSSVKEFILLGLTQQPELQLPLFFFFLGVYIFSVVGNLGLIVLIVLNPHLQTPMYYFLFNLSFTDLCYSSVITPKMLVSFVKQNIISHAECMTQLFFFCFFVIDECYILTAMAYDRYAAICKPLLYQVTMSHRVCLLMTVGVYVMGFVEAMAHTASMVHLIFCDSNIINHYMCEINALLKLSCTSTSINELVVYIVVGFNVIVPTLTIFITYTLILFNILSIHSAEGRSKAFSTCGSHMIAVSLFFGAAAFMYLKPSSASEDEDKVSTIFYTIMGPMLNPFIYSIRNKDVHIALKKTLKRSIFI

SMILES	EC50 (Olfr1377 [1]) [µM]	glomerular response to odorant (Olfr1377 [3])	further results
CC(=O)c1ccccc1O [2′-hydroxyacetophenone]	300	–	–
CC(=O)C=C(C)C [4-methyl-3-penten-2-one]	–	Olfr1377 showed strong responses to p-anisaldehyde, acetophenone, and the aliphatic ketone 4-methyl-3-penten-2-one	–
CC(=O)c1ccccc1 [acetophenone]	10.1	–	–
COc1ccc(C=O)cc1 [p-anisaldehyde]	–	Olfr1377 showed strong responses to p-anisaldehyde, acetophenone, and the aliphatic ketone 4-methyl-3-penten-2-one	–

Second part, led by results:

EC50 (Olfr1377 [1]) [µM]	SMILES	glomerular response to odorant (Olfr1377 [3])	further results
0.008	COc1ccc(C(C)=O)cc1 [4-methoxyacetophenone]	–	in vivo response threshold (Olfr1377 [2]): ~ 10^−13 M
1	CC(=O)c1ccc(C)cc1 [4-methylacetophenone]	–	in vivo two-photon GCaMP6s imaging of the receptor-tagged glomerulus; pS6-IP RNA (Olfr881): both Olfr1377 and Olfr881 exhibited robust responses to low concentrations of 4-methylacetophenone
